Assay results published in article PMC9486808 (ACS Chemical Biology, 2022).
“Also recorded” adds a separate entry of the source. Positions of bridges follow the written chain, without caps; N, C: chain ends. Non-standard residues stand in square brackets, D forms with d. Residues, ends and D or L forms follow the SMILES beside them.

What was measured:
Assay type in all cases: cell-based, Influenza A virus A/California/04/2009 (H1N1)
[1] = molecular target: full length, membrane-bound H1 HA (Influenza A virus, UniProt C3W5S1)
[2] = molecular target: full-length H1 HA I375F (Influenza A virus, UniProt C3W5S1, I389F)
[3] = molecular target: full-length H1 HA I463V (Influenza A virus, UniProt C3W5S1, I477V)

SMILES: CC(C)C[C@@H]1NC(=O)[C@H](C(C)C)NC(=O)[C@@H](Cc2ccc(O)cc2)NC(=O)CSC[C@@H](C(=O)NCC(N)=O)NC(=O)[C@H](C(C)C)NC(=O)[C@H](Cc2c[nH]c3ccccc23)NC(=O)[C@H](Cc2c[nH]cn2)NC(=O)[C@H]([C@@H](C)O)NC(=O)[C@H](C)NC(=O)[C@H](CC(C)C)NC(=O)[C@H]([C@@H](C)O)NC(=O)CNC(=O)[C@H](Cc2c[nH]cn2)NC(=O)[C@H](CC(=O)O)NC(=O)[C@H](Cc2c[nH]c3ccccc23)NC(=O)[C@H](CCCNC(=N)N)NC(=O)[C@H](Cc2ccccc2)NC1=O [S5] ({CH2CO}-[dY]VLFRWDHGTLATHWVCG-NH2; thioether N-17)
- Competition with mAb Fi6 staining [1]: strongly decreased the staining; also recorded: competed with the binding of mAb Fi6
- Binding of biotinylated S5 to cell-surface H1 [2]: hinders binding; also recorded: affected by the I375F substitution
- Binding of biotinylated S5 to cell-surface H1 [3]: not by the I463V substitution
